From patent publication US11840686B2, “Modulation of prekallikrein (PKK) expression” (Ionis Pharmaceuticals, Inc., priority 2013, dated 2023)
Several values for one entry are separate records, joined by “and”; a condition that tells them apart may be missing. Identical values can stand only once. Strand notation (5' to 3'): a small letter for the sugar, then the base; units joined by * are phosphorothioate-linked, units joined directly phosphodiester-linked; [ ] holds rarer units or linkages, { } end groups; capitals alone tell only the bases. e = 2'-O-(2-methoxyethyl) (MOE); k = constrained ethyl (cEt); [5mC] = 5-methylcytosine; d = 2'-deoxy (DNA)

Tests used:
Format in all cases: cell-based
[1] = test system: human PKK mRNA; assay: Antisense inhibition of human PKK mRNA in HepaRG cells, 1,000 nM, MOE/deoxy/cEt oligonucleotides (Example 3)
Outline: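 HepaRG cells at 20,000 per well electroporated with 1,000 nM 16-mer MOE/cEt/deoxy gapmers (phosphorothioate, 5-methylcytosine). After about 24 h, PKK mRNA measured by qRT-PCR with primer probe set RTS3454, normalized to RIBOGREEN total RNA. Reported as percent inhibition versus untreated cells.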

[2] = test system: human PKK mRNA; assay: Dose-dependent antisense inhibition of human PKK in HepaRG cells, 0.11-3.00 uM (Example 6); details: for IC50: 0.11-3.00 μM; for percent inhibition of PKK mRNA, 1.00 μM / percent inhibition of PKK mRNA, 3.00 μM / percent inhibition of PKK mRNA, 0.11 μM / percent inhibition of PKK mRNA, 0.33 μM: electroporation, approx. 16 hours, relative to untreated control cells
Method: Cells were plated at a density of 20,000 cells per well and transfected using electroporation with 0.11 μM, 0.33 μM, 1.00 μM, and 3.00 μM concentrations of antisense oligonucleotide. After a treatment period of approximately 16 hours, RNA was isolated from the cells and PKK mRNA levels were measured by quantitative real-time PCR. Human PKK primer probe set RTS3454 was used to measure mRNA levels. PKK mRNA levels were adjusted according to total RNA content, as measured by RIBOGREEN®. The antisense oligonucleotides were tested in a series of experiments that had similar culture conditions.
The half maximal inhibitory concentration (IC50) of each oligonucleotide is also presented.

[3] = test system: human PKK mRNA; assay: Dose-dependent antisense inhibition of human PKK in HepaRG cells, 0.19-5.00 uM (Example 5); details: HepaRG cells; for percent inhibition of PKK at 0.19 μM / percent inhibition of PKK at 0.56 μM / percent inhibition of PKK at 1.67 μM / percent inhibition of PKK at 5.00 μM: electroporation, approximately 16 hours
Outline: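 HepaRG cells (20,000/well) were electroporated with antisense oligonucleotide at 0.19, 0.56, 1.67 and 5.00 μM and treated for about 16 hours. PKK mRNA was quantified by qRT-PCR with primer probe set RTS3454, normalised to RIBOGREEN total RNA, and IC50 was derived per oligonucleotide.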

[4] = test system: human PKK mRNA; assay: Antisense inhibition of human PKK mRNA in HepaRG cells, 5,000 nM (Example 2); details: human PKK mRNA, HepaRG cells, 5,000 nM antisense oligonucleotide, Table 18
Outline: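 HepaRG cells (20,000/well) electroporated with 5,000 nM MOE gapmer (phosphorothioate backbone, 5-methylcytosines) and harvested after ~24 h. PKK mRNA measured by qRT-PCR with primer probe set RTS3454, normalized to RIBOGREEN total RNA; percent inhibition versus untreated cells.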

[5] = Table 21 experiment, HepaRG cells, electroporation with 1,000 nM antisense oligonucleotide, approx. 24 hours, PKK mRNA by RT-PCR (RTS3454), relative to untreated control cells

Substance: 547747 (eT*e[5mC]*kA*d[5mC]*dT*dG*dT*dA*d[5mC]*dT*dA*dG*dT*kT*kT*e[5mC]) [compound 547747]
- % inhibition ([1]; HepaRG cells, 1,000 nM antisense oligonucleotide, Table 29): 64%
- % inhibition ([1]; HepaRG cells, electroporation with 1,000 nM antisense oligonucleotide, approx. 24 hours, PKK mRNA by RT-PCR (RTS3454), relative to untreated control cells, Table 25 experiment): 66%
- % inhibition ([1]; HepaRG cells, electroporation with 1,000 nM antisense oligonucleotide, approx. 24 hours, PKK mRNA by RT-PCR (RTS3454), relative to untreated control cells, Table 26 experiment): 80%
- % inhibition ([1]; HepaRG cells, electroporation with 1,000 nM antisense oligonucleotide, approximately 24 hours, primer probe set RTS3454, relative to untreated control cells, experiment of Table 23): 83%
- % inhibition ([1]; HepaRG cells, electroporation with 1,000 nM antisense oligonucleotide, approximately 24 hours, primer probe set RTS3454, relative to untreated control cells, experiment of Table 24): 80%
- % inhibition ([1]; PKK mRNA, HepaRG cells, 1,000 nM antisense oligonucleotide, Table 31): 88%
- % inhibition ([1]; Table 19, HepaRG cells, electroporation with 1,000 nM antisense oligonucleotide, approximately 24 hours, PKK mRNA by RT-PCR (RTS3454), relative to untreated control cells): 95%
- % inhibition ([1]; Table 20, HepaRG cells, electroporation with 1,000 nM antisense oligonucleotide, approximately 24 hours, PKK mRNA by RT-PCR (RTS3454), relative to untreated control cells): 84%
- % inhibition [1, 5]: 88%
- % inhibition ([1]; Table 22 experiment, HepaRG cells, electroporation with 1,000 nM antisense oligonucleotide, approx. 24 hours, PKK mRNA by RT-PCR (RTS3454), relative to untreated control cells): 91%
- % inhibition ([1]; Table 27, HepaRG cells, 1,000 nM antisense oligonucleotide, human PKK mRNA): 67%
- % inhibition ([1]; Table 28, HepaRG cells, 1,000 nM antisense oligonucleotide, human PKK mRNA): 64%
- % inhibition ([1]; Table 30, human PKK mRNA, HepaRG cells, 1,000 nM antisense oligonucleotide): 64%
- IC50 [2]: 400 nM and 300 nM and 500 nM
- percent inhibition of PKK mRNA, 1.00 μM [2]: 81% and 90% and 72% and 85%
- percent inhibition of PKK mRNA, 3.00 μM [2]: 89% and 92% and 90% and 96%

Substance: 547769 (antisense eT*eT*kG*dG*dA*dG*dG*dT*dG*dA*dG*dT*d[5mC]*kT*k[5mC]*eT) [compound 547769]
- % inhibition [1, 5]: 81%
- IC50 [2]: 600 nM
- percent inhibition of PKK mRNA, 0.11 μM [2]: 12%
- percent inhibition of PKK mRNA, 0.33 μM [2]: 17%
- percent inhibition of PKK mRNA, 1.00 μM [2]: 80%
- percent inhibition of PKK mRNA, 3.00 μM [2]: 96%

Substance: 547807 (eG*e[5mC]*kA*dG*dT*dA*dT*dT*dG*dG*dG*d[5mC]*dA*kT*kT*eT; antisense) [compound 547807]
- % inhibition [1, 5]: 75%
- IC50 [2]: 400 nM
- percent inhibition of PKK mRNA, 0.11 μM [2]: 26%
- percent inhibition of PKK mRNA, 0.33 μM [2]: 71%
- percent inhibition of PKK mRNA, 1.00 μM [2]: 61%
- percent inhibition of PKK mRNA, 3.00 μM [2]: 94%

Substance: 547808 (e[5mC]*eA*kT*d[5mC]*dT*dG*dG*d[5mC]*dA*dG*dT*dA*dT*kT*kG*eG; antisense) [compound 547808]
- % inhibition [1, 5]: 56%
- IC50 [2]: 1100 nM
- percent inhibition of PKK mRNA, 0.11 μM [2]: 19%
- percent inhibition of PKK mRNA, 0.33 μM [2]: 22%
- percent inhibition of PKK mRNA, 1.00 μM [2]: 48%
- percent inhibition of PKK mRNA, 3.00 μM [2]: 71%

Substance: 548743 (DNA e[5mC]*eA*e[5mC]*eT*dG*dT*dA*d[5mC]*dT*dA*dG*dT*dT*eT*e[5mC]*e[5mC]*eT; antisense) [compound 548743]
- percent inhibition of PKK at 0.19 μM ([3]; Table 40): 25%
- percent inhibition of PKK at 0.56 μM ([3]; Table 40): 57%
- percent inhibition of PKK at 1.67 μM ([3]; Table 40): 73%
- percent inhibition of PKK at 5.00 μM ([3]; Table 40): 88%
- IC50 ([3]; 4 point dose response, Table 40): 500 nM
- percent inhibition of PKK mRNA, 0.19 μM ([3]; 0.19 μM antisense oligonucleotide): 22%
- percent inhibition of PKK mRNA, 0.56 μM ([3]; 0.56 μM antisense oligonucleotide): 47%
- percent inhibition of PKK mRNA, 1.67 μM ([3]; 1.67 μM antisense oligonucleotide): 74%
- percent inhibition of PKK mRNA, 5.00 μM ([3]; 5.00 μM antisense oligonucleotide): 96%
- IC50 ([3]; 0.19-5.00 μM): 600 nM
- % inhibition [4]: 80%

Substance: 548744 (DNA eT*e[5mC]*eA*e[5mC]*dT*dG*dT*dA*d[5mC]*dT*dA*dG*dT*eT*eT*e[5mC]*e[5mC]; antisense) [compound 548744]
- percent inhibition of PKK at 0.19 μM ([3]; Table 38): 14%
- percent inhibition of PKK at 0.56 μM ([3]; Table 38): 35%
- percent inhibition of PKK at 1.67 μM ([3]; Table 38): 63%
- percent inhibition of PKK at 5.00 μM ([3]; Table 38): 83%
- IC50 ([3]; 4 point dose response, Table 38): 1000 nM
- % inhibition [4]: 83%
